{"source": "paper PMC6498869", "about": "“Structural and mutational analyses of psychrophilic and mesophilic adenylate kinases highlight the role of hydrophobic interactions in protein thermal stability” (Structural Dynamics, 2019)", "assay_in_all_cases": "ATP formation, hexokinase/G6PDH end-point assay", "format_in_all_cases": "biochemical", "conditions_in_all_cases": "2.5 mM ADP, 2 mM MgCl2, 100 mM KCl, HEPES pH 7.4, 5-65 °C", "key": {"[1]": {"biological_target": "T1, AKm (Bacillus subtilis, UniProt P16304)", "T1 construct": "gene adk; full length (residues 1-217), pET11a, E. coli BL21 (DE3); Affi-Gel blue and size exclusion, no tag mentioned"}, "[2]": {"biological_target": "T2, AKp (Sporosarcina globispora, UniProt P84139)", "T2 construct": "gene adk; full length (residues 1-217), pET30a, E. coli BL21 (DE3); Affi-Gel blue and size exclusion, no tag mentioned"}, "[3]": {"biological_target": "T3, AKm (Bacillus subtilis, UniProt P16304, I26T)", "T3 construct": "gene adk; full length (residues 1-217), pET11a, E. coli BL21 (DE3); Affi-Gel blue and size exclusion, no tag mentioned", "T3 sequence (P16304 whole entry I26T, the tested form may be a part)": "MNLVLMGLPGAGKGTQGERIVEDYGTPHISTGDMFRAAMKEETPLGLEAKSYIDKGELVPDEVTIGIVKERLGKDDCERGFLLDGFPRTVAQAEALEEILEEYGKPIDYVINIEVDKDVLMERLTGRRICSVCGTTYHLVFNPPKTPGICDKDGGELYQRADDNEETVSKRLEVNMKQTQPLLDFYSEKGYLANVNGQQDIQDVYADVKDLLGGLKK"}, "[4]": {"biological_target": "T4, AKp (Sporosarcina globispora, UniProt P84139, T26I)", "T4 construct": "gene adk; full length (residues 1-217), pET30a, E. coli BL21 (DE3); Affi-Gel blue and size exclusion, no tag mentioned", "T4 sequence (P84139 whole entry T26I, the tested form may be a part)": "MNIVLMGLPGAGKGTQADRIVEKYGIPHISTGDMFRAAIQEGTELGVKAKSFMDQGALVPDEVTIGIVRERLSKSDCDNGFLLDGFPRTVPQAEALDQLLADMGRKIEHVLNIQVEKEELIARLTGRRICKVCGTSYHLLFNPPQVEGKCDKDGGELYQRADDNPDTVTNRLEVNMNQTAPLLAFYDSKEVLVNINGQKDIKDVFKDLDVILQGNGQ"}}}
{"smiles": "Nc1ncnc2c1ncn2[C@@H]1O[C@H](COP(=O)(O)OP(=O)(O)O)[C@@H](O)[C@H]1O", "note": "[ADP]", "values": [{"measurement": "ATP formation, hexokinase/G6PDH end-point assay", "setting": "[1]", "result": "The activity assays of WT AKm and the I26T mutant also showed consistent results"}, {"measurement": "ATP formation, hexokinase/G6PDH end-point assay", "setting": "[2]", "result": "we determined the temperature dependence of the activities of WT AKp and its T26I mutant"}, {"measurement": "ATP formation, hexokinase/G6PDH end-point assay", "setting": "[3]", "result": "The activity assays of WT AKm and the I26T mutant also showed consistent results"}, {"measurement": "ATP formation, hexokinase/G6PDH end-point assay", "setting": "[4]", "result": "we determined the temperature dependence of the activities of WT AKp and its T26I mutant"}]}
